Key:
SOS1 = SOS1 (Homo sapiens (Human), UniProt Q07889); experiment: Ras-SOS interaction assay (HTRF), K-Ras G13D utilized; assay type: binding; details: K-Ras G13D, read-out: SOS1 IC50
Excerpt: For example, the equilibrium interaction of human SOS1 (hSOS1) with human wildtype Kras or K-Ras mutant (e.g., hK-Ras G12C mutant, or hK-Ras G12C) can be assessed as a proxy or an indication for a subject compound's ability to inhibit SOS. Detection of such interaction is achieved by measuring homogenous time-resolved fluorescence resonance energy transfer (HTRF) from (i) a fluorescence resonance energy transfer (FRET) donor (e.g., antiGST-Europium) that is bound to GST-tagged K-Ras G12C to (ii) a FRET acceptor (e.g., anti-6His-XL665) bound to a His-tagged hSOS1.
A Ras working solution is prepared in assay buffer containing typically 10 nM of the protein construct (e.g., GST-tagged hK-Ras G12C) and 2 nM of the FRET donor (e.g., antiGST-Eu(K) from Cisbio, France). A SOS1 working solution is prepared in assay buffer containing typically 10 nM of the protein construct (e.g., His-hSOS1) and 10 nM of the FRET acceptor (e.g., anti-6His-XL665 from Cisbio, France). An inhibitor control solution is prepared in assay buffer containing 10 nM of the FRET acceptor without the SOS1 protein.
A fixed reaction mixture with or without test compound is transferred into a 384-well plate. Ras working solution is added to all wells of the test plate. SOS1 working solution is added to all wells except for those that are subsequently filled with the inhibitor control solution. […] The ratiometric data (i.e., emission 2 divided by emission 1) is used to calculate IC50 values against SOS1 using GraphPad Prism (GraphPad software).

[1] = test system: NCI-H1975 (ATCC CRL-5908) cell line comprising an EGFR T790M L858R double mutation; experiment: EGFR-SOS cellular inhibition assay (CellTiter-Glo cell proliferation); assay type: cell-based; details: Homo sapiens, 120 h; NCI-H1975 cell proliferation, approximately 5 days; read-out: H1975 IC50
Procedure: A CellTiter-Glo (CTG) luminescent based assay (Promega) is used to assess growth of the cells, as a measurement of the ability of the compounds herein to inhibit EGFR signaling in the cells. […] The day after plating, cells are treated with a dilution series (e.g., a 9 point 3-fold dilution series) of the compounds herein (e.g., approximately 125 μL final volume per well).

Sequence of SOS1 (Q07889 564-1049): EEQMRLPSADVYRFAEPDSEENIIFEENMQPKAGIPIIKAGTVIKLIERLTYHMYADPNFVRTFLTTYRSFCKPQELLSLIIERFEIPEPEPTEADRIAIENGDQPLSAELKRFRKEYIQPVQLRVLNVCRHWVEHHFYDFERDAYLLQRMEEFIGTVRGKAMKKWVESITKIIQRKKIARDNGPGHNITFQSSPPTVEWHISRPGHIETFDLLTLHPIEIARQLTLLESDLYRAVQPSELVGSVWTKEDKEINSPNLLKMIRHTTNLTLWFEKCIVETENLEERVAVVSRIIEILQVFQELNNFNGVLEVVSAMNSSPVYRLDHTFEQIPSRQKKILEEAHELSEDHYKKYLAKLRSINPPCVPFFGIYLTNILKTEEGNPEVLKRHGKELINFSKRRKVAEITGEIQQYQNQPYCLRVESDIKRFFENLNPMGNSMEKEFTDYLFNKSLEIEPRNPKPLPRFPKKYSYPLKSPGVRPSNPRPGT

Compound	IC50 (SOS1)	IC50 [1]
Cc1nc2c3cc(C4(C#N)CC4)c(=O)n(c3n1)CC/C=C\COCC(F)(F)c1cccc(c1F)[C@@H](C)N2 [Compound 3, 1-((3R,Z)-4^2,5,5-trifluoro-1^2,3-dimethyl-1^7-oxo-1^7,1^8-dihydro-7-oxa-2-aza-1(4,8)-pyrido[2,3-d]pyrimidina-4(1,3)-benzenacyclododecaphan-9-en-1^6-yl)cyclopropane-1-carbonitrile]	100 to 5000 nM	1000 to 10000 nM
C[C@H]1Nc2ncnc3c2cc(C2(C#N)CCS(=O)(=O)CC2)c(=O)n3CCCCCN2CCC(CC2)CCC(F)(F)c2cccc1c2 [Compound 8, 4-((3R)-5,5-difluoro-3-methyl-1^7-oxo-1^7,1^8-dihydro-2-aza-1(4,8)-pyrido[2,3-d]pyrimidina-8(4,1)-piperidina-4(1,3)-benzenacyclotridecaphane-1^6-yl)tetrahydro-2H-thiopyran-4-carbonitrile 1,1-dioxide]	< 100 nM	< 1000 nM
C[C@H]1Nc2ncnc3c2cc(C2(C#N)CC2)c(=O)n3CCCNC(=O)CCN2CCC(CC2)C(F)(F)c2cccc1c2F [Compound 11, 1-((4R)-3^2,2,2-trifluoro-4-methyl-6^7,11-dioxo-6^7,6^8-dihydro-5,10-diaza-6(4,8)-pyrido[2,3-d]pyrimidina-1(4,1)-piperidina-3(1,3)-benzenacyclotridecaphane-6^6-yl)cyclopropane-1-carbonitrile]	< 100 nM	< 1000 nM
Cc1nc2c3cc(C4CCS(=O)(=O)CC4)c(=O)n(c3n1)CCCC/C=C\CC(C)(O)C(F)(F)c1cccc(c1)[C@@H](C)N2 (stereo partly drawn) [Compound 12, (3R,Z)-1^6-(1,1-dioxidotetrahydro-2H-thiopyran-4-yl)-5,5-difluoro-6-hydroxy-1^2,3,6-trimethyl-1^7,1^8-dihydro-2-aza-1(4,8)-pyrido[2,3-d]pyrimidina-4(1,3)-benzenacyclotridecaphan-8-en-1^7-one]	100 to 5000 nM	< 1000 nM
C[C@H]1Nc2ncnc3c2cc(C2(C#N)CC2)c(=O)n3CCCCCCN2CCC(CC2)CC(F)(F)c2cccc1c2F [Compound 15, 1-((3R)-4^2,5,5-trifluoro-3-methyl-1^7-oxo-1^7,1^8-dihydro-2-aza-1(4,8)-pyrido[2,3-d]pyrimidina-7(4,1)-piperidina-4(1,3)-benzenacyclotridecaphane-1^6-yl)cyclopropane-1-carbonitrile]	< 100 nM	< 1000 nM
CC(C)N1CCN(c2cc3c4ncnc3n(c2=O)CCCCCCN2CCC(CC2)CC(F)(F)c2cccc(c2F)[C@@H](C)N4)CC1 [Compound 16, (3R)-4^2,5,5-trifluoro-1^6-(4-isopropylpiperazin-1-yl)-3-methyl-1^7,1^8-dihydro-2-aza-1(4,8)-pyrido[2,3-d]pyrimidina-7(4,1)-piperidina-4(1,3)-benzenacyclotridecaphan-1^7-one]	< 100 nM	< 1000 nM
C[C@H]1Nc2ncnc3c2cc(N2CCN(C4CCOCC4)CC2)c(=O)n3CCCCCCCN2CCC(CC2)C(F)(F)c2cccc1c2F [Compound 19, (4R)-3^2,2,2-trifluoro-4-methyl-6^6-(4-(tetrahydro-2H-pyran-4-yl)piperazin-1-yl)-6^7,68-dihydro-5-aza-6(4,8)-pyrido[2,3-d]pyrimidina-1(4,1)-piperidina-3(1,3)-benzenacyclotridecaphan-6^7-one]	< 100 nM	< 1000 nM
CC1CCCCCn2c(=O)c(C3(C#N)CC3)cc3c(ncnc32)N[C@H](C)c2cccc(c2F)C(F)(F)C2CCN(CC2)C1 (stereo partly drawn) [Compound 20, 1-((4R)-3^2,2,2-trifluoro-4,12-dimethyl-6^7-oxo-6^7,6^8-dihydro-5-aza-6(4,8)-pyrido[2,3-d]pyrimidina-1(4,1)-piperidina-3(1,3)-benzenacyclotridecaphane-6^6-yl)cyclopropane-1-carbonitrile]	< 100 nM	< 1000 nM
CC(C)N1CCN(c2cc3c4ncnc3n(c2=O)CCCCCCCN2CCC(CC2)C(F)(F)c2cccc(c2F)[C@@H](C)N4)CC1 [Compound 21, (4R)-3^2,2,2-trifluoro-6^6-(4-isopropylpiperazin-1-yl)-4-methyl-6^7,6^8-dihydro-5-aza-6(4,8)-pyrido[2,3-d]pyrimidina-1(4,1)-piperidina-3(1,3)-benzenacyclotridecaphan-6^7-one]	< 100 nM	< 1000 nM
CC1CC/C=C\CCn2c(=O)c(C3(C#N)CC3)cc3c(ncnc32)N[C@H](C)c2cccc(c2)C(F)(F)C2CCN1CC2 (stereo partly drawn) [Compound 100, 1-((4R,Z)-2,2-difluoro-4,13-dimethyl-6^7-oxo-6^7,6^8-dihydro-5-aza-6(4,8)-pyrido[2,3-d]pyrimidina-1(4,1)-piperidina-3(1,3)-benzenacyclotridecaphan-9-en-6^6-yl)cyclopropane-1-carbonitrile]	–	< 1000 nM
Cc1nc2c3cc(C4(C#N)CC4)c(=O)n(c3n1)CCCCCCCCCC(C)(O)C(F)(F)c1cccc(c1)[C@@H](C)N2 (stereo partly drawn) [Compound 115, 1-((3R)-5,5-difluoro-6-hydroxy-1^2,3,6-trimethyl-1^7-oxo-1^7,1^8-dihydro-2-aza-1(4,8)-pyrido[2,3-d]pyrimidina-4(1,3)-benzenacyclopentadecaphane-1^6-yl)cyclopropane-1-carbonitrile]	100 to 5000 nM	–

More lines, now with the values ahead:

IC50 (SOS1)	IC50 [1]	Compound
100 to 5000 nM	–	Cc1nc2c3cc(C4(C#N)CC4)c(=O)n(c3n1)CCCCCCCCCOCC(F)(F)c1cccc(c1F)[C@@H](C)N2 [Compound 133, 1-((3R)-4^2,5,5-trifluoro-1^2,3-dimethyl-1^7-oxo-1^7,1^8-dihydro-7-oxa-2-aza-1(4,8)-pyrido[2,3-d]pyrimidina-4(1,3)-benzenacyclohexadecaphane-1^6-yl)cyclopropane-1-carbonitrile]
100 to 5000 nM	–	COc1cc2nc(C)nc3c2cc1OCCOCCOCCOCCOCCNC(=O)CCNCc1ccccc1C1=CC=C(S1)C(C)N3 (centres unmarked) [Compound 136, 5^7-methoxy-5^2,3-dimethyl-6,9,12,15,18-pentaoxa-4,21,25-triaza-5(4,6)-quinazolina-2(2,5)-thiophena-1(1,2)-benzenacyclohexacosaphan-22-one]
100 to 5000 nM	–	Cc1nc2c3cc(C4(C#N)CC4)c(=O)n(c3n1)CCCCCCCC(C)(O)C(F)(F)c1cccc(c1)[C@@H](C)N2 (stereo partly drawn) [Compound 148, 1-((3R)-5,5-difluoro-6-hydroxy-1^2,3,6-trimethyl-1^7-oxo-1^7,1^8-dihydro-2-aza-1(4,8)-pyrido[2,3-d]pyrimidina-4(1,3)-benzenacyclotridecaphane-1^6-yl)cyclopropane-1-carbonitrile]
100 to 5000 nM	–	COc1cc2nc(C)nc3c2cc1OCCCCOCCOCCOCCNCc1ccccc1C1=CC=C(S1)C(C)N3 (centres unmarked) [Compound 150, 5^7-methoxy-5^2,3-dimethyl-6,11,14,17-tetraoxa-4,20-diaza-5(4,6)-quinazolina-2(2,5)-thiophena-1(1,2)-benzenacyclohenicosaphane]
< 100 nM	–	C[C@H]1Nc2ncnc3cc(c(N4CCS(=O)(=O)CC4)cc23)OCCCCOCCCN2CCC(CC2)C(F)(F)c2cccc1c2 [Compound 192, (R)-4-(2,2-difluoro-4-methyl-7,12-dioxa-5-aza-6(4,7)-quinazolina-1(4,1)-piperidina-3(1,3)-benzenacyclopentadecaphane-6^6-yl)thiomorpholine 1,1-dioxide]
< 100 nM	–	C[C@H]1Nc2ncnc3c(cc(N4CCS(=O)(=O)CC4)cc23)OCCCCCCN2CCC(CC2)C(F)(F)c2cccc1c2 [Compound 193, (R)-4-(2,2-difluoro-4-methyl-7-oxa-5-aza-6(4,8)-quinazolina-1(4,1)-piperidina-3(1,3)-benzenacyclotridecaphane-6^6-yl)thiomorpholine 1,1-dioxide]
< 100 nM	–	C[C@H]1Nc2ncnc3c2cc(C2CCS(=O)(=O)CC2)c(=O)n3CCCOCCCN2CCC(CC2)CC(F)(F)c2cccc1c2 [Compound 194, (3R)-1^6-(1,1-dioxidotetrahydro-2H-thiopyran-4-yl)-5,5-difluoro-3-methyl-1^7,1^8-dihydro-11-oxa-2-aza-1(4,8)-pyrido[2,3-d]pyrimidina-7(4,1)-piperidina-4(1,3)-benzenacyclotetradecaphan-1^7-one]
< 100 nM	–	CC(C)N1CCN(c2cc3c4ncnc(c4c2)N[C@H](C)c2cccc(c2)C(F)(F)C2CCN(CCCCCCO3)CC2)CC1 [Compound 195, (R)-2,2-difluoro-6^6-(4-isopropylpiperazin-1-yl)-4-methyl-7-oxa-5-aza-6(4,8)-quinazolina-1(4,1)-piperidina-3(1,3)-benzenacyclotridecaphane]
< 100 nM	–	Cc1nnc2c3cc(N4CCOCC4)cc(c13)OCCCCCCN1CCC(CC1)C(F)(F)c1cccc(c1)[C@@H](C)N2 [Compound 196, (R)-2,2-difluoro-6^4,4-dimethyl-6^7-morpholino-7-oxa-5-aza-6(1,5)-phthalazina-1(4,1)-piperidina-3(1,3)-benzenacyclotridecaphane]

From US20230339952A1, “MACROCYCLIC HETEROCYCLES AND USES THEREOF” (Kumquat Biosciences Inc., priority 2022, published 2023)
